One series concerns the target T1, COX-2 (Mus musculus, UniProt Q05769).
T1 construct: host or cells: RAW 264.7 cells, pre-treated with aspirin, then induced with interferon and LPS
T1 sequence (Q05769 18-604): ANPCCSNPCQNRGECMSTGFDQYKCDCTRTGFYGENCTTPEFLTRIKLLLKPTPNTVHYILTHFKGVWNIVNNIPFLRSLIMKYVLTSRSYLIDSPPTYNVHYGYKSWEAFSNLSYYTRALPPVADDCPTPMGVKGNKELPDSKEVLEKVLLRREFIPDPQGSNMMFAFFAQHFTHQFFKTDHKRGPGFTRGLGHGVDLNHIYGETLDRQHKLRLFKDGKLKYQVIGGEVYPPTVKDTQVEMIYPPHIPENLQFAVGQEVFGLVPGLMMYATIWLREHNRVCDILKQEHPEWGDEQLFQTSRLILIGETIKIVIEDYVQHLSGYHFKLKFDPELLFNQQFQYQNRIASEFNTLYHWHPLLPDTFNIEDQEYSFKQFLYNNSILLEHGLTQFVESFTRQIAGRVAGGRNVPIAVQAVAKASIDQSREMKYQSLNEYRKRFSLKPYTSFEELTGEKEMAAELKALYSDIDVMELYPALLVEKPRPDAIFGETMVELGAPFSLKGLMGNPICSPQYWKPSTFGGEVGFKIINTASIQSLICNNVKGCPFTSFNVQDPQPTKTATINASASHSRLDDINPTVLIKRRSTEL
Description: Assay for the COX-2 inhibitory activity using Raw 264.7 cell line (PGE2 inhibition). Format: cell-based. The note with it: RAW264.7; test compound 30 nM; RAW 264.7 cells; aspirin pre-treated, interferon + LPS 18 hours; PGE2 by EIA; read-out: Cyclooxygenase (COX) Inhibition (%) COX-2 (30 nM). The method, then: Each well was treated with 250 μM of aspirin and incubated at 37° C. for 2 hours. After the culture media were replaced with new culture media, the new culture media were treated with a test compound (30 nM) and incubated for 30 minutes. Then, each well was treated with interferon ? (100 units/ml) and lipopolysaccharide (LPS, 100 ng/ml) and incubated for 18 hours. The culture media were transferred to other test tubes. The concentration of PGE2 was quantified by means of the EIA kit (Cayman Chemicals).
(§1) The percentages of the COX inhibition were calculated according to the following equation: % Inhibition=(concentration of PGE2 in test compound-untreated sample−concentration of PGE2 in test compound-treated sample)/(concentration of PGE2 in test compound-untreated sample)×100

A further series deals with T2, COX-1 (Homo sapiens, UniProt P23219).
T2 construct: host or cells: U-937 human lymphoma cells
Description: Assay for the COX-1 inhibitory activity using U-937 (PGE2 inhibition). The note with it: test compound 1 μM; U-937 human lymphoma cells; arachidonic acid substrate; PGE2 quantified; read-out: Cyclooxygenase (COX) Inhibition (%) COX-1 (1 μM). Format: cell-based. The procedure: The collected cells were diluted with HBSS (×1, Hank's balanced salt solution) to a concentration of 1×10^6 cells/ml. 1 ml of the dilute cell solution was placed into each well of 12-well plates. 5 μl of 1 μM solution of a test compound in DMSO and 5 μl of DMSO as a control were added to the wells. The wells were incubated in CO2 incubator at 37° C. for 15 minutes. Separately, 10 mM stock solution of arachidonic acid in ethanol was diluted ten times in ethanol to prepare 1 mM solution of arachidonic acid. Arachidonic acid acts as a substrate. 10 μl of the 1 mM solution of arachidonic acid was added to each well and incubated at CO2 incubator at 37° C. for 30 minutes. The cell solution of each well was placed in a centrifuge test tube and centrifuged at 10,000 rpm at 4° C. for 5 minutes. The concentration of PGE2 in the collected cells and the supernatant was quantified by means of a monoclonal kit (Cayman Chemicals). The percentages of PGE2 inhibition in a group of the test compound-treated cells in relation to a group of the DMSO-treated cells were calculated. Based on the calculated values, the COX-1 inhibitory activities were evaluated.
as §1

Here are results for 21 molecules from patent US7781592B2, “Thione derivative, method for the preparation thereof, and pharmaceutical composition containing the same” (CJ Cheiljedang Corporation, priority 2003, dated 2010).

T2 sequence (P23219 24-599): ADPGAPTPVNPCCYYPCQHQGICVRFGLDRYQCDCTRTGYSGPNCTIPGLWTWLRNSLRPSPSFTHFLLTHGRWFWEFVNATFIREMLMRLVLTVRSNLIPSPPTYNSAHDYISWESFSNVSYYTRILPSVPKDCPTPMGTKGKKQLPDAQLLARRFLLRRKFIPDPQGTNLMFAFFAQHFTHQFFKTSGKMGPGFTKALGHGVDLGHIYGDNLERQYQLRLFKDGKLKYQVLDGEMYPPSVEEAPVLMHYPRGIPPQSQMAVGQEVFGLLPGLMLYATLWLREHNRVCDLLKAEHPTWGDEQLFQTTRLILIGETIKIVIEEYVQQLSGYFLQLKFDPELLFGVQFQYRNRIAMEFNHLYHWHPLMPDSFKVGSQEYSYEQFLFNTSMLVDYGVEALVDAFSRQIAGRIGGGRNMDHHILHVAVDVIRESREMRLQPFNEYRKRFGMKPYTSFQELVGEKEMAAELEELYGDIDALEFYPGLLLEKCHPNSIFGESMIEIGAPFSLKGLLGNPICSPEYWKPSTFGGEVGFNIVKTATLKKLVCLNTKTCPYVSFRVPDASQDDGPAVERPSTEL

Turning to `CS(=O)(=O)c1ccc(-c2ssc(=S)c2-c2ccc(F)cc2Cl)cc1` [Example 59, 4-(2-chloro-4-fluorophenyl)-5-(4-methanesulfonylphenyl)-[1,2]dithiol-3-thione], the melting point (commonly the temperature of the solid-liquid transition) lay within 184 to 185 °C. Further, at COX-2, the inhibition (as a rule, the drop in the measured response relative to a control, in per cent) at 0.03 µM worked out at 19.7%. In addition, the inhibition at 1 µM on COX-1 was determined as 23.2%.
`CCOc1ccc(-c2c(-c3ccc(S(C)(=O)=O)cc3Cl)ssc2=S)cc1` [Example 70, 5-(2-chloro-4-methanesulfonylphenyl)-4-(4-ethoxyphenyl)-[1,2]dithiol-3-thione] gave a melting point of 190 to 191 °C. Besides, the inhibition at 0.03 µM on COX-2 was 36%. For the same molecule, the inhibition at 1 µM at COX-1 worked out at 17.5%.
In turn, `CC(=O)Oc1ccc(-c2c(-c3ccc(F)c(F)c3)ssc2=S)cc1` [Example 76, Acetic acid 4-[5-(3,4-difluorophenyl)-3-thioxo-3H-[1,2]dithiol-4-yl]-phenyl ester] displayed a melting point of 147 to 149 °C. Moreover, on COX-2, the inhibition at 0.03 µM is 20.3%. Moreover, on COX-1, the inhibition at 1 µM came to 21.6%.
For `CC(C)Oc1ccc(-c2c(-c3ccc(S(C)(=O)=O)cc3)ssc2=S)cc1` [Example 67, 4-(4-isopropoxylphenyl)-5-(4-methanesulfonylphenyl)-[1,2]dithiol-3-thione] the same measures were 179 to 180 °C, 23.3% and 27.5%.
`CS(=O)(=O)c1ccc(-c2ssc(=S)c2-c2cccc(C(F)(F)F)c2)cc1` [Example 55, 5-(4-methanesulfonylphenyl)-4-(3-trifluoromethylphenyl)-[1,2]dithiol-3-thione] registered a melting point of 188 to 189 °C. In addition, the inhibition at 0.03 µM on COX-2 amounted to 20.2%. Further, the inhibition at 1 µM at COX-1 came to 27.6%.
As for `COc1ccc(OC)c(-c2c(-c3ccc(S(C)(=O)=O)cc3)ssc2=S)c1` [Example 51, 4-(2,5-dimethoxyphenyl)-5-(4-methanesulfonylphenyl)-[1,2]dithiol-3-thione], the melting point was in the range of 176 to 177 °C. Besides, the inhibition at 0.03 µM at COX-2 is 19.8%. The inhibition at 1 µM at COX-1 was 27.6%.
As for `CS(=O)(=O)c1ccc(-c2ssc(=S)c2-c2ccc(F)cc2)cc1` [Example 50, 4-(4-fluorophenyl)-5-(4-methanesulfonylphenyl)-[1,2]dithiol-3-thione], the melting point lay in the range of 195 to 197 °C. On COX-2, the inhibition at 0.03 µM was determined as 19.6%. Further, at COX-1, the inhibition at 1 µM was 27.2%.
In turn, `CS(=O)(=O)c1ccc(-c2ssc(=S)c2-c2ccccc2F)cc1` [Example 62, 4-(2-fluorophenyl)-5-(4-methanesulfonylphenyl)-[1,2]dithiol-3-thione] returned a melting point of 173 to 174 °C. In addition, the inhibition at 0.03 µM at COX-2 worked out at 21%. In addition, on COX-1, the inhibition at 1 µM came to 26.6%.
The molecule `COc1ccc(-c2c(-c3ccc(S(C)(=O)=O)cc3)ssc2=S)cc1OC` [Example 60, 4-(3,4-dimethoxyphenyl)-5-(4-methanesulfonylphenyl)-[1,2]dithiol-3-thione] yielded a melting point of 182 to 183 °C. The inhibition at 0.03 µM at COX-2 is 19.3%. Besides, the inhibition at 1 µM at COX-1 was found to be 26.5%.
For `CS(=O)(=O)c1ccc(-c2ssc(=S)c2-c2ccc(F)c(F)c2)cc1` [Example 64, 4-(3,4-difluorophenyl)-5-(4-methanesulfonylphenyl)-[1,2]dithiol-3-thione] the same measures were 193 to 194 °C, 19.8% and 21.6%.
`CS(=O)(=O)c1ccc(-c2ssc(=S)c2-c2ccccc2)cc1` [Example 42, 5-(4-methanesulfonylphenyl)-4-phenyl-[1,2]dithiol-3-thione] yielded a melting point of 200 to 202 °C. The inhibition at 0.03 µM at COX-2 was 20.1%. Besides, the inhibition at 1 µM on COX-1 stood at 24.5%.
`COc1ccc(-c2c(-c3ccc(F)c(F)c3)ssc2=S)cc1` [Example 75, 5-(3,4-difluorophenyl)-4-(4-methoxyphenyl)-[1,2]dithiol-3-thione]: the melting point is 143 to 145 °C. Also, at COX-2, the inhibition at 0.03 µM was 19.6%. Besides, the inhibition at 1 µM at COX-1 amounted to 26.6%.
For `CC(=O)Oc1ccc(-c2c(-c3ccc(S(C)(=O)=O)c(F)c3)ssc2=S)cc1` [Example 79, Acetic acid 4-[5-(3-fluoro-4-methanesulfonylphenyl)-3-thioxo-3H-[1,2]dithiol-4-yl]-phenyl ester] the same measures were 200 to 201 °C, 30.2% and 19.5%.
`CC(=O)Oc1ccc(-c2c(-c3ccc(S(C)(=O)=O)cc3)ssc2=S)cc1` [Example 69, Acetic acid 4-[5-(4-methanesulfonylphenyl)-3-thioxo-3H-[1,2]dithiol-4-yl]phenyl ester]: the melting point lay within 241 to 243 °C. In addition, the inhibition at 0.03 µM at COX-2 came to 21.3%. Besides, on COX-1, the inhibition at 1 µM is 24.8%.
For `CS(=O)(=O)c1ccc(-c2ssc(=S)c2-c2ccc(Cl)cc2)cc1` [Example 45, 4-(4-chlorophenyl)-5-(4-methanesulfonylphenyl)-[1,2]dithiol-3-thione] the same measures were 233 to 235 °C, 22.1% and 19.6%.
For `CS(=O)(=O)c1ccc(-c2ssc(=S)c2-c2ccccc2Br)cc1` [Example 61, 4-(2-bromophenyl)-5-(4-methanesulfonylphenyl)-[1,2]dithiol-3-thione] the same measures were 179 to 180 °C, 20.1% and 23.3%.
`CS(=O)(=O)c1ccc(-c2ssc(=S)c2-c2ccccc2Cl)cc1` [Example 57, 4-(2-chlorophenyl)-5-(4-methanesulfonylphenyl)-[1,2]dithiol-3-thione] showed a melting point of 161 to 162 °C. In addition, the inhibition at 0.03 µM on COX-2 turned out to be 21.1%. Further, the inhibition at 1 µM on COX-1 is 20.7%.
For `CS(=O)(=O)c1ccc(-c2ssc(=S)c2-c2ccc(Br)cc2)cc1` [Example 40, 4-(4-bromophenyl)-5-(4-methanesulfonylphenyl)-[1,2]dithiol-3-thione] the same measures were 238 to 240 °C, 35.7% and 18.3%.
For `COc1ccc(-c2c(-c3ccc(S(C)(=O)=O)cc3Cl)ssc2=S)cc1` [Example 73, 5-(2-chloro-4-methanesulfonylphenyl)-4-(4-methoxyphenyl)-[1,2]dithiol-3-thione] the same measures were 192 to 193 °C, 20.1% and 25.6%.
In turn, `CS(=O)(=O)c1ccc(-c2ssc(=S)c2-c2ccccc2C(F)(F)F)cc1` [Example 44, 5-(4-methanesulfonylphenyl)-4-(2-trifluoromethylphenyl)-[1,2]dithiol-3-thione] gave a melting point of 240 to 242 °C. Besides, at COX-2, the inhibition at 0.03 µM was 20.1%. Moreover, at COX-1, the inhibition at 1 µM was 25.5%.
`Cc1cc(C)cc(-c2c(-c3ccc(S(C)(=O)=O)cc3)ssc2=S)c1` [Example 52, 4-(3,5-dimethylphenyl)-5-(4-methanesulfonylphenyl)-[1,2]dithiol-3-thione] came in with a melting point of 164 to 165 °C. Besides, the inhibition at 0.03 µM at COX-2 was found to be 19.1%. In addition, the inhibition at 1 µM on COX-1 is 26.6%.
